One assay has as its system HeLa cells. Kind of assay: CellTiter-Glo cell viability, HeLa cells. The settings on record: Homo sapiens, HeLa. It counts as cell-based. How it is done: The cell viability IC50 of each compound was determined using Promega CellTiter-Glo Luminescent Cell Viability Assay kit by measuring the total ATP levels to quantify the number of metabolically active cells upon drug treatment as described in Crouch et al., J Immunol Methods 1993, 160, (1), 81-8. Briefly, the compounds were suspended in DMSO at 10 mM and diluted in 384 plates (20 μl/well in DMSO) in triplicate by a 14-point titration (12 nM to 100 μM). 50 μl of HeLa cells or patient derived glioblastoma cells (HK-309) (2000 cells/well) were then treated with the prepared dilutions of the drugs (0.5 μl) and incubated at 37° C. and 5% CO2. 72 hours later 50 μl of CellTiter-Glo reagent was added to each well followed by a 2 minutes shaking and a 10-minute incubation to lyse the cells. The relative luminescent intensity units (RLU) of each well was measured using a Tecan M1000 microplate reader (Tecan Group Ltd.) with its green filter and 1 second integration time.
Cells used in Example 2 and other examples disclosed herein were cultured as follows: Adherent HeLa cells and patient derived glioblastoma cells were grown with 5% CO2 at 37° C. in F12:DMEM 50:50 medium (Invitrogen) containing 10% FBS and 1% penicillin/streptomycin. To obtain HeLa cells synchronized in mitosis, cycling cells were treated with 2 mM thymidine (Sigma-Aldrich) for eighteen hours, washed three times with PBS, and released into fresh media until they entered mitosis eight hours post-release. Patient-derived glioblastoma cells (HK-309) were collected and grown with approval from the UCLA Institutional Review Board. HK-309 was derived from a recurrent glioblastoma taken from a person. The cells were initially propagated as cancer stem cell-containing spheres in serum-free medium containing basic fibroblast growth factor and epidermal growth factor (Preprotech) as described previously by Visnyei et al., Mol Cancer Ther 2011, 10, (10), 1818-28.
For mitotic arrest IC50s, cells were treated with a twenty-point-2-fold-titration (190 pM to 10 μM) of each compound tested for 20 hours. For cell viability IC50s, cells were treated with a fourteen-point-2-fold-titration (12.2 nM to 100 μM). Mitotic arrest IC50 was determined by measuring the percent G2/M arrest using the Vybrant DyeCycle Green (Invitrogen) assay described above. Cell viability IC50 was determined using the CellTiter-Glo Assay (Promega), which measures total ATP levels. Plates were read with a Tecan M1000 micro-plate reader at 540 nm. The CDD software was used for generating IC50 and IC90 values.
On the technique in general: ATP-based viability assays read luminescence as a measure of living cells.

A further assay deals with β-tubulin. In words: Crystal structure of T2R-TTL tubulin complex soaked with ligand. The class given is binding, bovine. The settings on record: T2R-TTL crystal soaked 24 hours with 1 mM compound. How it is done:
The crystal structure of tubulin bound to two ligands described here was obtained using an established system for tubulin crystal growth. […] Methods in Cell Biology 2010, 95:373-390.) Briefly, bovine αβ-tubulin, human RB3 or rat STMN4 stathmin-like domain, and chicken tubulin tyrosine ligase (TTL) reconstitute to form a stathmin-bound αβ-tubulin (T2R) T2R-TTL complex, which readily crystallizes. […]
The final resolution cutoffs described here were determined optimally from a subset of diffraction images that took into consideration the signal-to-noise ratio for reflection intensities and the random half-data set correlation coefficient, CC1/2 (Karplus P. A., Diederichs K. Linking crystallographic model and data quality. Science 2012, (New York, N.Y.) 336:1030-1033.) […]

The values that follow come from US10913750B2, “Tubulin-binding compounds, compositions and uses related thereto” (The Regents of the University of California, priority 2015, dated 2021).

As a reminder, the IC50 is the concentration needed to halve the response being measured. The low end stands for higher potency, the high end for lower potency. For the compound `Cc1cc2nc(/C=C/c3cccnc3)sc2cc1C` [MI-181], the midpoint of inhibition with HeLa cells, the IC50, lay at 17.4 nM. Besides, the “binding to tubulin in crystal structure” value in the assay with β-tubulin is reported as “bound to β-tubulin”.
